Results taken from US10562878B2, “Cycloalkylamines as monoamine reuptake inhibitors” (Sunovion Pharmaceuticals Inc., priority 2006, dated 2020).
Like-named read-outs stand apart in the source and are kept apart here.

Experiments:
mice = test: Mouse tail suspension test; type: in vivo; details: 30 mg/kg PO
[1] = target: human serotonin transporter (Homo sapiens (Human), UniProt P31645); test: Serotonin functional uptake assay, recombinant human transporter in HEK-293 cells; type: cell-based; details: Human serotonin transporter uptake; read-out: hSERT IC50
[2] = target: human dopamine transporter (Homo sapiens (Human), UniProt Q01959); test: Dopamine functional uptake assay, recombinant human transporter in CHO-K1 or HEK293 cells; type: cell-based; details: read-out: hDAT IC50
Rats = test: Rat forced swim test; type: in vivo
[3] = target: 5-HT Transporter (SERT) sites in mouse brain (Mus musculus (Mouse), UniProt Q60857); test: Ex vivo [3H] citalopram binding to SERT sites in mouse brain after oral dosing; details: mice, 60 min after treatment; for receptor occupancy at 1 mg/kg / receptor occupancy at 3 mg/kg / receptor occupancy at 10 mg/kg / receptor occupancy at 30 mg/kg: mouse
[4] = target: DA Transporter (DAT) sites in mouse brain (Mus musculus (Mouse), UniProt Q61327); test: Ex vivo [3H] WIN 35428 binding to DAT sites in mouse brain after oral dosing; details: mice, 60 min after treatment; for receptor occupancy at 1 mg/kg / receptor occupancy at 3 mg/kg / receptor occupancy at 10 mg/kg / receptor occupancy at 30 mg/kg: mouse
[5] = target: T1, Norepinephrine Transporter (NET) sites in mouse brain (Mus musculus (Mouse), UniProt O55192); details: mice, 60 min after treatment
[6] = target: T1, Norepinephrine Transporter (NET) sites in mouse brain; test: in vivo; details: po, read-out: NET % Transporter Occupancy

Sequence of human serotonin transporter (P31645 whole entry): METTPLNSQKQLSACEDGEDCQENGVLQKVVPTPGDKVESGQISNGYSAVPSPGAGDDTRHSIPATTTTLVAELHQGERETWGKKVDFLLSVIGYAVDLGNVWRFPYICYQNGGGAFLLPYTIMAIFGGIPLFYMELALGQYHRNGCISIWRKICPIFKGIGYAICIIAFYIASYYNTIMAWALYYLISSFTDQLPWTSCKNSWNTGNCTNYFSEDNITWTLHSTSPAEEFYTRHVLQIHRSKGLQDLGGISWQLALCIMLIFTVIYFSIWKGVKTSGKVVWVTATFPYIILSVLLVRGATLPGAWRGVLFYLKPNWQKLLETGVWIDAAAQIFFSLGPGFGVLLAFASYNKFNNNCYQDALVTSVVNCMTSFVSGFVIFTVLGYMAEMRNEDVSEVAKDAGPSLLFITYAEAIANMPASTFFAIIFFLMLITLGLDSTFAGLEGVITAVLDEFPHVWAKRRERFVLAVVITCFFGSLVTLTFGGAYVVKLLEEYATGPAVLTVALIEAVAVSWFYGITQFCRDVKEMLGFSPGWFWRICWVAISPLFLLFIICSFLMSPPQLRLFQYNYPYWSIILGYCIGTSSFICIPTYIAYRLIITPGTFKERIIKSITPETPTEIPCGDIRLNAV
Sequence of human dopamine transporter (Q01959 whole entry): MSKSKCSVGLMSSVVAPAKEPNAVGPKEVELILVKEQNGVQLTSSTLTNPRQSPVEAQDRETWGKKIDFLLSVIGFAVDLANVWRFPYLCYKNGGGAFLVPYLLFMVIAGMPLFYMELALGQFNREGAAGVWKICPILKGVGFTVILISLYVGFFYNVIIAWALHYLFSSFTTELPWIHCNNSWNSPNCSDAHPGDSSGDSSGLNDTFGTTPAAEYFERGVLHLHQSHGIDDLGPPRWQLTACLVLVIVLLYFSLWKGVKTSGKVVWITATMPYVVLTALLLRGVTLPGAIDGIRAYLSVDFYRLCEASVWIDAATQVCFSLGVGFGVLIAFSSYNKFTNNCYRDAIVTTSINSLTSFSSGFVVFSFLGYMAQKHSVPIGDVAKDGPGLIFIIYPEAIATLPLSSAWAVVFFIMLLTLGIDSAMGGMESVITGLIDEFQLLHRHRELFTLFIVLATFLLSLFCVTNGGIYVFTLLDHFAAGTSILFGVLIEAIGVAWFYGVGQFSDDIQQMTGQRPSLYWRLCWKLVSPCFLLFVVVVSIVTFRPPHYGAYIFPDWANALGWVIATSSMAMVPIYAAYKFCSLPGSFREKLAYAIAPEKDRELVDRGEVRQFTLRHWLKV

Structure (SMILES): CN(C)C[C@]1(c2ccc3ccccc3c2)CCCC[C@H]1O (relative stereo) [164 E2, trans-2-((dimethylamino)methyl)-2-(naphthalen-2-yl)cyclohexanol]
- Mouse Tail Suspension Mean Immobility Time ± S.E.M. (mice): 141.8 ± 6.0

Structure (SMILES): COc1ccc([C@@]2(CN(C)C)CCCC[C@H]2O)cc1 (single isomer, unassigned) [156 E2, trans-2-((dimethylamino)methyl)-2-(4-methoxyphenyl)cyclohexanol]
- IC50 [1]: 0.653 µM
- IC50 [2]: 4 µM

Structure (SMILES): CN(C)C[C@@]1(c2ccc(Cl)c(F)c2)CCCC[C@H]1O (single isomer, unassigned) [157 E1, Cis-2-(4-chloro-3-fluorophenyl)-2-((dimethylamino)methyl)cyclohexanol]
- IC50 [1]: 1.3 µM
- IC50 [2]: 0.575 µM

Structure (SMILES): CN(C)C[C@@]1(c2ccc(Cl)c(F)c2)CCCC[C@H]1O (single isomer, unassigned) [157 E2, Cis-2-(4-chloro-3-fluorophenyl)-2-((dimethylamino)methyl)cyclohexanol]
- IC50 [1]: 0.29 µM
- IC50 [2]: 0.849 µM

Structure (SMILES): CN(C)C[C@]1(c2ccc(Cl)c(F)c2)CCCC[C@H]1O (single isomer, unassigned) [158 E1, Trans-2-(4-chloro-3-fluorophenyl)-2-((dimethylamino)methyl)cyclohexanol]
- IC50 [1]: 8.44 µM
- IC50 [2]: 0.945 µM

Structure (SMILES): CN(C)C[C@]1(c2ccc(Cl)c(F)c2)CCCC[C@H]1O (single isomer, unassigned) [158 E2, Trans-2-(4-chloro-3-fluorophenyl)-2-((dimethylamino)methyl)cyclohexanol]
- IC50 [1]: 2.99 µM
- IC50 [2]: 5.02 µM

Structure (SMILES): CN(C)C[C@@]1(c2ccc(C(F)(F)F)cc2)CCCC[C@H]1O (single isomer, unassigned) [159 E1, cis-2-((dimethylamino)methyl)-2-(4-(trifluoromethyl)phenyl)cyclohexanol]
- IC50 [1]: 1.26 µM
- IC50 [2]: 3.8 µM

Structure (SMILES): CN(C)C[C@@]1(c2ccc(C(F)(F)F)cc2)CCCC[C@H]1O (single isomer, unassigned) [159 E2, cis-2-((dimethylamino)methyl)-2-(4-(trifluoromethyl)phenyl)cyclohexanol]
- IC50 [1]: 0.042 µM
- IC50 [2]: 2.31 µM

Structure (SMILES): CN(C)C[C@]1(c2ccc(C(F)(F)F)cc2)CCCC[C@H]1O (single isomer, unassigned) [160 E1, trans-2-((dimethylamino)methyl)-2-(4-(trifluoromethyl)phenyl)cyclohexanol]
- IC50 [1]: 7.19 µM
- IC50 [2]: 9.72 µM

Structure (SMILES): CN(C)C[C@]1(c2ccc(C(F)(F)F)cc2)CCCC[C@H]1O (single isomer, unassigned) [160 E2, trans-2-((dimethylamino)methyl)-2-(4-(trifluoromethyl)phenyl)cyclohexanol]
- IC50 [1]: 5.09 µM
- IC50 [2]: > 10 µM

Structure (SMILES): CNCC1(c2ccc3ccccc3c2)CCCCC1 [Compound 93, N-methyl-1-(1-(naphthalen-2-yl)cyclohexyl)methanamine]
- Mouse Tail Suspension Mean Immobility Time ± S.E.M. (mice): 162.0 ± 8.1
- Rat Forced Swim Climbing (Means ± S.E.M.) (Rats; 3 mg/kg PO): 9.0 ± 1.3
- Rat Forced Swim Immobility (Means ± S.E.M.) (Rats; 3 mg/kg PO): 44.5 ± 2.5
- Rat Forced Swim Swimming (Means ± S.E.M.) (Rats; 3 mg/kg PO): 6.5 ± 1.6
- Rat Forced Swim Climbing (Means ± S.E.M.) (Rats; 10 mg/kg PO): 12.8 ± 2.2
- Rat Forced Swim Immobility (Means ± S.E.M.) (Rats; 10 mg/kg PO): 41.4 ± 2.8
- Rat Forced Swim Swimming (Means ± S.E.M.) (Rats; 10 mg/kg PO): 6.9 ± 1.3
- Rat Forced Swim Climbing (Means ± S.E.M.) (Rats; 30 mg/kg PO): 22.2 ± 3.5
- Rat Forced Swim Immobility (Means ± S.E.M.) (Rats; 30 mg/kg PO): 25.8 ± 5.4
- Rat Forced Swim Swimming (Means ± S.E.M.) (Rats; 30 mg/kg PO): 12.0 ± 2.1

Structure (SMILES): CO[C@@H]1CCC[C@@](CN)(c2ccc(Cl)c(Cl)c2)C1 [Compound 192]
- IC50 [1]: > 10 µM
- IC50 [2]: 1.96 µM

Structure (SMILES): CNCC1(c2ccc(Cl)c(Cl)c2)CCC(C)(O)CC1 (stereo not drawn) [Compound 276, 4-(3,4-dichlorophenyl)-1-methyl-4-((methylamino)methyl)cyclohexanol]
- IC50 [2]: 0.071 µM
- SERT Mean Specific Binding ± S.E.M. ([3]; 1 mg/kg PO): 3743 ± 199 dpm
- SERT Mean Specific Binding ± S.E.M. ([3]; 3 mg/kg PO): 3685 ± 292 dpm
- SERT Mean Specific Binding ± S.E.M. ([3]; 10 mg/kg PO): 3092 ± 207 dpm
- SERT Mean Specific Binding ± S.E.M. ([3]; 30 mg/kg PO): 1558 ± 169 dpm
- receptor occupancy at 1 mg/kg ([3]; 1 mg/kg PO): 12%
- receptor occupancy at 3 mg/kg ([3]; 3 mg/kg PO): 14%
- receptor occupancy at 10 mg/kg ([3]; 10 mg/kg PO): 28%
- receptor occupancy at 30 mg/kg ([3]; 30 mg/kg PO): 64%
- DAT Mean Specific Binding ± S.E.M. ([4]; 3 mg/kg PO): 16312 ± 2396 dpm
- DAT Mean Specific Binding ± S.E.M. ([4]; 10 mg/kg PO): 15879 ± 2265 dpm
- DAT Mean Specific Binding ± S.E.M. ([4]; 30 mg/kg PO): 10397 ± 931 dpm
- receptor occupancy at 1 mg/kg ([4]; 1 mg/kg PO): -21%
- receptor occupancy at 3 mg/kg ([4]; 3 mg/kg PO): -9%
- receptor occupancy at 10 mg/kg ([4]; 10 mg/kg PO): -6%
- receptor occupancy at 30 mg/kg ([4]; 30 mg/kg PO): 31%
- NET Mean Specific Binding ± S.E.M. ([5]; 1 mg/kg PO): 1602 ± 51 dpm
- NET Mean Specific Binding ± S.E.M. ([5]; 3 mg/kg PO): 1631 ± 92 dpm
- NET Mean Specific Binding ± S.E.M. ([5]; 10 mg/kg PO): 1553 ± 27 dpm
- NET Mean Specific Binding ± S.E.M. ([5]; 30 mg/kg PO): 1138 ± 59 dpm
- receptor occupancy at 1 mg/kg [6]: -4%
- receptor occupancy at 3 mg/kg [6]: -6%
- receptor occupancy at 10 mg/kg [6]: -1%
- receptor occupancy at 30 mg/kg [6]: 26%

Structure (SMILES): CN(C)CC1(c2ccc(Cl)c(Cl)c2)CCC(C)(O)CC1 (stereo not drawn) [Compound 277, 4-(3,4-dichlorophenyl)-4-((dimethylamino)methyl)-1-methylcyclohexanol]
- IC50 [2]: 0.041 µM
- SERT Mean Specific Binding ± S.E.M. ([3]; 1 mg/kg PO): 1508 ± 86 dpm
- SERT Mean Specific Binding ± S.E.M. ([3]; 3 mg/kg PO): 1491 ± 75 dpm
- SERT Mean Specific Binding ± S.E.M. ([3]; 10 mg/kg PO): 1416 ± 43 dpm
- SERT Mean Specific Binding ± S.E.M. ([3]; 30 mg/kg PO): 1384 ± 101 dpm
- receptor occupancy at 1 mg/kg ([3]; 1 mg/kg PO): -6%
- receptor occupancy at 3 mg/kg ([3]; 3 mg/kg PO): -5%
- receptor occupancy at 10 mg/kg ([3]; 10 mg/kg PO): 0%
- receptor occupancy at 30 mg/kg ([3]; 30 mg/kg PO): 3%
- DAT Mean Specific Binding ± S.E.M. ([4]; 1 mg/kg PO): 35827 ± 2302 dpm
- DAT Mean Specific Binding ± S.E.M. ([4]; 3 mg/kg PO): 34136 ± 4104 dpm
- DAT Mean Specific Binding ± S.E.M. ([4]; 10 mg/kg PO): 33230 ± 2807 dpm
- DAT Mean Specific Binding ± S.E.M. ([4]; 30 mg/kg PO): 31743 ± 4406 dpm
- receptor occupancy at 1 mg/kg ([4]; 1 mg/kg PO): 17%
- receptor occupancy at 3 mg/kg ([4]; 3 mg/kg PO): 21%
- receptor occupancy at 10 mg/kg ([4]; 10 mg/kg PO): 23%
- receptor occupancy at 30 mg/kg ([4]; 30 mg/kg PO): 26%
- NET Mean Specific Binding ± S.E.M. ([5]; 1 mg/kg PO): 950 ± 46 dpm
- NET Mean Specific Binding ± S.E.M. ([5]; 3 mg/kg PO): 824 ± 30 dpm
- NET Mean Specific Binding ± S.E.M. ([5]; 10 mg/kg PO): 533 ± 25 dpm
- NET Mean Specific Binding ± S.E.M. ([5]; 30 mg/kg PO): 294 ± 42 dpm
- receptor occupancy at 1 mg/kg [6]: 6%
- receptor occupancy at 3 mg/kg [6]: 18%
- receptor occupancy at 10 mg/kg [6]: 47%
- receptor occupancy at 30 mg/kg [6]: 71%

Structure (SMILES): CNC[C@]1(c2ccc(Cl)c(Cl)c2)CC[C@H](O)CC1 [Compound 287, cis-4-(3,4-dichlorophenyl)-4-((methylamino)methyl)cyclohexanol]
- IC50 [1]: 1.04 µM
- IC50 [2]: 0.192 µM

Structure (SMILES): CCN(C)[C@H]1CC[C@@](CN)(c2ccc(Cl)c(Cl)c2)CC1 [Compound 290, trans-4-(aminomethyl)-4-(3,4-dichlorophenyl)-N-ethyl-N-methylcyclo-hexanamine]
- IC50 [1]: 0.992 µM
- IC50 [2]: 1.39 µM
